From US20260097126A1, “PHARMACEUTICAL FORMULATIONS AND METHODS FOR THE TREATMENT OF METABOLIC AND LIVER DISORDERS” (priority 2022, published 2026)
Numbered stars: 1 amine (or outer) side, 2 acyl side, 3 side chain; on linkers, the order of the positions; unused ones are H or OH. Square brackets hold non-standard residues; d marks the D form. Side chains are listed from the residue outwards. Peptide text beside a SMILES is read from it. * marks the point of attachment. Nonadecanoyl(19-PO3H2) = O=C(CCCCCCCCCCCCCCCCCCP(=O)(O)O)*; γGlu = O=C(O)[C@H](CCC(=O)[*:2])N[*:1]; AEEA = NCCOCCOCC(=O)O; Aib = CC(C)(N)C(=O)O

Columns and labels:
[1] = tested on: mice fed a Gubra amylin NASH (GAN) diet; assay: Biological effects in GAN diet-induced NASH mice; type: in vivo; conditions: after two weeks; for Gal-3 Relative / Gal-3 Total: liver Galectin-3, histological quantitative assessment; for α-SMA Relative / α-SMA Total: liver alpha-smooth muscle actin, histological quantitative assessment; for TG Relative / TG Total: liver triglycerides
Protocol: NASH was induced in mice by feeding mice a Gubra amylin NASH (GAN) diet as described in Boland et al. World J Gastroenterol. 2019, 25(33): 4904-4920. One week prior to administration of a first dose of compounds, the mice were weighed and randomized, and their food intake was measured. Mice were randomly assigned to dosing groups, with twelve mice per group. […] Compound dose titration (nmol/kg): 0.6 (day 0), 1.2 (day 1), 2.4 (day 2), 4.8 (day 3), 4.8 (day 4), 12 (day 5), 30.0 (from day 6).
After two weeks, animals were sacrificed. Plasma enzymes (P-ALT (alanine aminotransferase) and P-AST (aspartate aminotransferase)), total plasma triglycerides, and total plasma cholesterol were measured, and terminal necropsy of each liver was carried out, determining relative liver weight as a percentage of body weight, assaying total liver biochemistry including total liver triglycerides, plasma insulin and total liver cholesterol, as well as histological evaluation of Galectin-3, and alpha-smooth muscle actin.

GIP receptor [2] = target: T1, GIP receptor (Homo sapiens, UniProt P48546); assay: HSA modulated binding assay, GIP receptor; conditions: binding with 2% HSA to binding with 0% HSA
T1 sequence (P48546 22-466): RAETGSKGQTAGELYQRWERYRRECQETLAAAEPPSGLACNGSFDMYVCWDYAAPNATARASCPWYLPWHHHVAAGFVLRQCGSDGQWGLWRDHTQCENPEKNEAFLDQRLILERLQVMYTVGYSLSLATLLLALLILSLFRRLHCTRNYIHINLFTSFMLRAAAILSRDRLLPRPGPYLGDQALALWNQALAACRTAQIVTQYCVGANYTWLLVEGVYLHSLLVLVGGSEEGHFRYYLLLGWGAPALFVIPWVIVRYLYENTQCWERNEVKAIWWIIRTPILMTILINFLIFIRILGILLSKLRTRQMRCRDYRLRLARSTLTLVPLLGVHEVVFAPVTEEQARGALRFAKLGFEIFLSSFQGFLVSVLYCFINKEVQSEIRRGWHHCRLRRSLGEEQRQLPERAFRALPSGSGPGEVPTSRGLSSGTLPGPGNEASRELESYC

GLP-1 receptor [3] = target: T2, GLP-1 receptor (Homo sapiens, UniProt P43220); assay: HSA modulated binding assay, GLP-1 receptor; conditions: binding with 2% HSA to binding with 0% HSA
T2 sequence (P43220 24-463): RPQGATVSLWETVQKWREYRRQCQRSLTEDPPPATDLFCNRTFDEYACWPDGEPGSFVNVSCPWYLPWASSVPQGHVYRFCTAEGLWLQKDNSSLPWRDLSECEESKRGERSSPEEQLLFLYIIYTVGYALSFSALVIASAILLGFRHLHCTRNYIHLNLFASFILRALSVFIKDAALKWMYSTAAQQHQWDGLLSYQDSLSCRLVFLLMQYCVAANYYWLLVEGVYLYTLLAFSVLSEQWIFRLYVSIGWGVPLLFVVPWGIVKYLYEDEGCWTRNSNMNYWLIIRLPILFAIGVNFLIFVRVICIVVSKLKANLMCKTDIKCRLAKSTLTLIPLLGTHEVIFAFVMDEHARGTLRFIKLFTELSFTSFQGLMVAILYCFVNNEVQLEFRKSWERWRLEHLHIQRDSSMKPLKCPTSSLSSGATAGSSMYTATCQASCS

[4] = Pharmacokinetic study of Compounds 4, 14, 15, 17 in monkeys; conditions: cynomolgus monkey, plasma, sc, 0.2 mg/kg
Protocol: The formulations were administered to cynomolgus monkeys at a dose of 0.2 mg/kg. Plasma concentration versus time data was collected and pharmacokinetic values determined.

GLP-1 receptor [5] = target: T2, GLP-1 receptor; assay: TagLite binding assay, GLP-1 receptor; conditions: read-out: GLP-1 receptor IC 50
GIP receptor [6] = target: T1, GIP receptor; assay: TagLite binding assay, GIP receptor; conditions: read-out: GIP receptor IC 50

Row | SMILES | liver Galectin-3 compared to tirzepatide or vehicle (in words) [1] | liver alpha-smooth muscle actin compared to tirzepatide (in words) [1] | liver triglycerides compared to tirzepatide or vehicle (in words) [1] | Gal-3 Relative [1] | Gal-3 Total [1] | α-SMA Relative [1] | α-SMA Total [1] | TG Relative [1] | TG Total [1] | GIP receptor Ratio of HSA/No HSA (GIP receptor [2]) | GLP-1 receptor Ratio of HSA/No HSA (GLP-1 receptor [3]) | AUC(0-inf) [4] | AUC(0-t) [4] | CL/F [4] | Cmax [4] | Tmax [4] | Vd/F [4] | half-life [4] | IC50 (GLP-1 receptor [5]) | IC50 (GIP receptor [6])
1 | CC[C@H](C)[C@H](NC(=O)[C@H](CC(C)C)NC(=O)[C@H](Cc1c[nH]c2ccccc12)NC(=O)[C@H](CCC(N)=O)NC(=O)[C@@H](NC(=O)[C@H](Cc1ccccc1)NC(=O)[C@H](C)NC(=O)[C@H](CCCCNC(=O)COCCOCCNC(=O)COCCOCCNC(=O)CC[C@H](NC(=O)CCCCCCCCCCCCCCCCCCP(=O)(O)OCc1ccccc1)P(=O)(O)O)NC(=O)[C@H](CCC(N)=O)NC(=O)[C@H](C)NC(=O)[C@@H](NC(=O)[C@H](CCCCN)NC(=O)[C@H](CC(=O)O)NC(=O)[C@H](CC(C)C)NC(=O)C(C)(C)NC(=O)[C@@H](NC(=O)[C@H](CO)NC(=O)[C@H](Cc1ccc(O)cc1)NC(=O)[C@H](CC(=O)O)NC(=O)[C@H](CO)NC(=O)[C@@H](NC(=O)[C@H](Cc1ccccc1)NC(=O)[C@@H](NC(=O)CNC(=O)[C@H](CCC(=O)O)NC(=O)C(C)(C)NC(=O)[C@@H](N)Cc1ccc(O)cc1)[C@@H](C)O)[C@@H](C)O)[C@@H](C)CC)[C@@H](C)CC)C(C)C)C(=O)N[C@@H](C)C(=O)NCC(=O)NCC(=O)N1CCC[C@H]1C(=O)N[C@@H](CO)C(=O)N[C@@H](CO)C(=O)NCC(=O)N[C@@H](C)C(=O)N1CCC[C@H]1C(=O)N1CCC[C@H]1C(=O)N1CCC[C@H]1C(=O)N[C@@H](CO)C(N)=O [Compound 12] | lower relative and total liver Galectin-3 as compared to administration of tirzepatide or vehicle alone | lower relative and total liver alpha-smooth muscle actin as compared to administration of tirzepatide | lower relative and total liver triglycerides as compared to administration of tirzepatide or vehicle alone | 5.7 ± 0.5 percent fractional area | 113 ± 10 mg | 4.4 ± 0.6 percent fractional area | 84 ± 8 mg | 35 ± 3 mg per/g liver | 63 ± 5 mg per/liver | 1.70 | 5.26 |  |  |  |  |  |  |  |  | 
2 | CC[C@H](C)[C@H](NC(=O)[C@H](CC(C)C)NC(=O)[C@H](Cc1c[nH]c2ccccc12)NC(=O)[C@H](CCC(N)=O)NC(=O)[C@@H](NC(=O)[C@H](Cc1ccccc1)NC(=O)[C@H](C)NC(=O)[C@H](CCCCNC(=O)COCCOCCNC(=O)COCCOCCNC(=O)CC[C@H](NC(=O)CCCCCCCCCCCCCCCCCCP(=O)(O)O)C(=O)O)NC(=O)[C@H](CCC(N)=O)NC(=O)[C@H](C)NC(=O)[C@@H](NC(=O)[C@H](CCCCN)NC(=O)[C@H](CC(=O)O)NC(=O)[C@H](CC(C)C)NC(=O)C(C)(C)NC(=O)[C@@H](NC(=O)[C@H](CO)NC(=O)[C@H](Cc1ccc(O)cc1)NC(=O)[C@H](CC(=O)O)NC(=O)[C@H](CO)NC(=O)[C@@H](NC(=O)[C@H](Cc1ccccc1)NC(=O)[C@@H](NC(=O)CNC(=O)[C@H](CCC(=O)O)NC(=O)C(C)(C)NC(=O)[C@@H](N)Cc1ccc(O)cc1)[C@@H](C)O)[C@@H](C)O)[C@@H](C)CC)[C@@H](C)CC)C(C)C)C(=O)N[C@@H](C)C(=O)NCC(=O)NCC(=O)N1CCC[C@H]1C(=O)N[C@@H](CO)C(=O)N[C@@H](CO)C(=O)NCC(=O)N[C@@H](C)C(=O)N1CCC[C@H]1C(=O)N1CCC[C@H]1C(=O)N1CCC[C@H]1C(=O)N[C@@H](CO)C(N)=O [Compound 14] |  |  |  |  |  |  |  |  |  |  |  | 179 µg·h/mL | 178 µg·h/mL | 28.6 mL/day/kg | 1430 ng/mL | 24 h | 0.104 L/kg | 60.9 h |  | 
3 | CC[C@H](C)[C@H](NC(=O)[C@H](CC(C)C)NC(=O)[C@H](Cc1c[nH]c2ccccc12)NC(=O)[C@H](CCC(N)=O)NC(=O)[C@@H](NC(=O)[C@H](Cc1ccccc1)NC(=O)[C@H](C)NC(=O)[C@H](CCCCNC(=O)COCCOCCNC(=O)COCCOCCNC(=O)CC[C@H](NC(=O)CCCCCCCCCCCCCCCCCCP(=O)(O)O)C(=O)O)NC(=O)[C@H](CCC(N)=O)NC(=O)[C@H](C)NC(=O)[C@@H](NC(=O)[C@H](CCCCN)NC(=O)[C@H](CC(=O)O)NC(=O)[C@H](CC(C)C)NC(=O)C(C)(C)NC(=O)[C@@H](NC(=O)[C@H](CO)NC(=O)[C@H](Cc1ccc(O)cc1)NC(=O)[C@H](CC(=O)O)NC(=O)[C@H](CO)NC(=O)[C@@H](NC(=O)[C@H](Cc1ccccc1)NC(=O)[C@@H](NC(=O)CNC(=O)[C@H](CCC(=O)O)NC(=O)C(C)(C)NC(=O)[C@@H](N)Cc1ccc(O)cc1)[C@@H](C)O)[C@@H](C)O)[C@@H](C)CC)C(C)C)C(C)C)C(=O)N[C@@H](CCCNC(=N)N)C(=O)NCC(=O)NCC(=O)N1CCC[C@H]1C(=O)N[C@@H](CO)C(=O)N[C@@H](CO)C(=O)NCC(=O)N[C@@H](C)C(=O)N1CCC[C@H]1C(=O)N1CCC[C@H]1C(=O)N1CCC[C@H]1C(=O)N[C@@H](CO)C(N)=O [Compound 17] (H-Y[Aib]EGTFTSDYSI[Aib]LDKVAQK([AEEA-AEEA-γGlu-Nonadecanoyl(19-PO3H2)])AFVQWLIRGGPSSGAPPPS-NH2) |  |  |  |  |  |  |  |  |  |  |  | 346 µg·h/mL | 316 µg·h/mL | 14.2 mL/day/kg | 1980 ng/mL | 28 h | 0.113 L/kg | 134 h |  | 
4 | CC[C@H](C)[C@H](NC(=O)[C@H](CC(C)C)NC(=O)[C@H](Cc1c[nH]c2ccccc12)NC(=O)[C@H](CCC(N)=O)NC(=O)[C@@H](NC(=O)[C@H](Cc1ccccc1)NC(=O)[C@H](C)NC(=O)[C@H](CCCCNC(=O)COCCOCCNC(=O)COCCOCCNC(=O)CC[C@H](NC(=O)CCCCCCCCCCCCCCCCCCC(=O)O)P(=O)(O)O)NC(=O)[C@H](CCC(N)=O)NC(=O)[C@H](C)NC(=O)[C@@H](NC(=O)[C@H](CCCCN)NC(=O)[C@H](CC(=O)O)NC(=O)[C@H](CC(C)C)NC(=O)C(C)(C)NC(=O)[C@@H](NC(=O)[C@H](CO)NC(=O)[C@H](Cc1ccc(O)cc1)NC(=O)[C@H](CC(=O)O)NC(=O)[C@H](CO)NC(=O)[C@@H](NC(=O)[C@H](Cc1ccccc1)NC(=O)[C@@H](NC(=O)CNC(=O)[C@H](CCC(=O)O)NC(=O)C(C)(C)NC(=O)[C@@H](N)Cc1ccc(O)cc1)[C@@H](C)O)[C@@H](C)O)[C@@H](C)CC)[C@@H](C)CC)C(C)C)C(=O)N[C@@H](C)C(=O)NCC(=O)NCC(=O)N1CCC[C@H]1C(=O)N[C@@H](CO)C(=O)N[C@@H](CO)C(=O)NCC(=O)N[C@@H](C)C(=O)N1CCC[C@H]1C(=O)N1CCC[C@H]1C(=O)N1CCC[C@H]1C(=O)N[C@@H](CO)C(N)=O [Compound 8] | lower relative and total liver Galectin-3 as compared to administration of tirzepatide or vehicle alone | lower relative and total liver alpha-smooth muscle actin as compared to administration of tirzepatide | lower relative and total liver triglycerides as compared to administration of tirzepatide or vehicle alone | 5.8 ± 0.6 percent fractional area | 117 ± 12 mg | 4.3 ± 0.5 percent fractional area | 83 ± 8 mg | 40 ± 3 mg per/g liver | 75 ± 7 mg per/liver |  |  |  |  |  |  |  |  |  | 288 nM | 223 nM
5 | CC[C@H](C)[C@H](NC(=O)[C@H](CC(C)C)NC(=O)[C@H](Cc1c[nH]c2ccccc12)NC(=O)[C@H](CCC(N)=O)NC(=O)[C@@H](NC(=O)[C@H](Cc1ccccc1)NC(=O)[C@H](C)NC(=O)[C@H](CCC(N)=O)NC(=O)[C@H](CCC(N)=O)NC(=O)[C@H](C)NC(=O)[C@@H](NC(=O)[C@H](CCCCNC(=O)COCCOCCNC(=O)COCCOCCNC(=O)CC[C@H](NC(=O)CCCCCCCCCCCCCCCCCCP(=O)(O)O)C(=O)O)NC(=O)[C@H](CC(=O)O)NC(=O)[C@H](CC(C)C)NC(=O)C(C)(C)NC(=O)[C@@H](NC(=O)[C@H](CO)NC(=O)[C@H](Cc1ccc(O)cc1)NC(=O)[C@H](CC(=O)O)NC(=O)[C@H](CO)NC(=O)[C@@H](NC(=O)[C@H](Cc1ccccc1)NC(=O)[C@@H](NC(=O)CNC(=O)[C@H](CCC(=O)O)NC(=O)C(C)(C)NC(=O)[C@@H](N)Cc1ccc(O)cc1)[C@@H](C)O)[C@@H](C)O)[C@@H](C)CC)[C@@H](C)CC)C(C)C)C(=O)N[C@@H](C)C(=O)NCC(=O)NCC(=O)N1CCC[C@H]1C(=O)N[C@@H](CO)C(=O)N[C@@H](CO)C(=O)NCC(=O)N[C@@H](C)C(=O)N1CCC[C@H]1C(=O)N1CCC[C@H]1C(=O)N1CCC[C@H]1C(=O)N[C@@H](CO)C(N)=O [Compound 15] (H-Y[Aib]EGTFTSDYSI[Aib]LDK([AEEA-AEEA-γGlu-Nonadecanoyl(19-PO3H2)])IAQQAFVQWLIAGGPSSGAPPPS-NH2) |  |  |  |  |  |  |  |  |  |  |  | 227 µg·h/mL | 221 µg·h/mL | 21.4 mL/day/kg | 2260 ng/mL | 18.7 h | 0.114 L/kg | 89.3 h |  | 
